We go through two compounds from paper doi:10.1101/211839v1 (biorxiv, 2017).

Experiment [1] addresses T1, HDAC11 (untagged) (Homo sapiens, UniProt Q96DB2).
T1 sequence (Q96DB2 1-347): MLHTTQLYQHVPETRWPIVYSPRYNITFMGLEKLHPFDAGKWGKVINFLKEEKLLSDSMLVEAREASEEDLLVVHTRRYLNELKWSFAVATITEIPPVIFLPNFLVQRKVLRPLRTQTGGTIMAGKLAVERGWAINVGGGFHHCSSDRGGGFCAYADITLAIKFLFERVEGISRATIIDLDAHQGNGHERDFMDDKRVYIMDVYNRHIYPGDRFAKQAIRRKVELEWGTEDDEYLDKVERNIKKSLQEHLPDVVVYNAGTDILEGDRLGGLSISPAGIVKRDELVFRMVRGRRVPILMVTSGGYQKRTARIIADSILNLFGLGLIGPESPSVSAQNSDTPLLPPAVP
Nature of the experiment: end-point fluorescence demyristoylase assay, trypsin release of AMC. The experiment is classed as biochemical.

Experiment [2] concerns the target T1, HDAC11 (untagged). Nature of the experiment: continuous fluorescence assay, trypsin-coupled, initial rates. The experiment is classed as biochemical. To be noted: […] enzyme, HEPES pH […], no BSA, […] °C.

For orientation: IC50 means the concentration needed to halve the response being measured. Low values mean inhibition by little substance, high ones a need for much substance. Take `C/C=C1\NC(=O)[C@H]2CSSCC/C=C/[C@H](CC(=O)N[C@H](C(C)C)C(=O)N2)OC(=O)[C@H](C(C)C)NC1=O` [romidepsin]: the IC50 against HDAC11 (untagged) [1] was greater than 100 µM.

As usually defined, the Km is the concentration of substrate that gives half-maximal velocity. Turning to Ac-ETDKmyr-AMC [6e], the Km on HDAC11 (untagged) [2] was found to be 60 µM.
